Experimental data published in patent publication US20240327411A1, “SIRT6 ACTIVATORS” (The Board of Regents of The University of Texas System, priority 2022, published 2024).
“And” between values parts separate entries of the source, which are not always exact repeats. Equal values may be shown once.

What was measured:
Sirt6 [1] = biological target: T1, Sirt6 (Homo sapiens, UniProt Q8N6T7); conditions: literature value, cited from earlier work
Sirt6 [2] = biological target: T1, Sirt6; assay: Sirt6-dependent peptide deacetylation, FLUOR DE LYS / Sirt6 fluorometric activity kit; type: biochemical; conditions: mean ± SD, at least two independent experiments; for Activation Fold 30 μM: compound at 30 μM; for Activation Fold 100 μM: compound at 100 μM
Experimental: Sirt6/Sirt1/Sirt2/Sirt3 activity was tested by Activity Assay Kits (Abcam) according to the manufacturer's instruction with minor modification. […] All experiments were conducted at room temperature.

SARS-CoV-2 = assay: microbe, parasite or virus in culture; type: cell-based
A549-hACE2 cells = assay: Cell viability assay in A549-hACE2 cells; conditions: 50 μM, 48 h
[3] = system: retinal precursor cells (R28); assay: MTT cell viability assay in R28 cells; type: cell-based; conditions: 30 μM, 24 hours
Experimental: FIGS. 5A-5C: FIGS. 5A-5C display the deacetylation effect and cytotoxicity of selected compounds. […] Nucleosomes extracted from HEK293T cells were incubated with 100 μM of selected compounds or Vehicle at 30° C. for 60 minutes. Acetylated H3K9 and total H3 were detected by Western blot. The level of acetylated H3K9 was quantified by Image Lab software. FIGS. 5B and 5C show the cell viability which was assessed by MTT assay. R28 cells were treated with 30 μM or 100 μM compounds for 24 hours. Data were presented as mean±SEM. The experiment was repeated at least three times. ***p<0.001; ****p<0.0001.
R28 cells were seeded in 96 well plates at a density of 1×10^4/well overnight, then treated with compounds for 24 h. MTT (MilliporeSigma) was added to cells (20 μL/well) and incubated for 3.5 h. After medium was removed, 100 μL dimethyl sulfoxide (DMSO) was added into each well. Absorbance was measured at 540 nm using a microplate reader.

Sirt6 [4] = biological target: T1, Sirt6; assay: Nucleosome test: Sirt6-dependent H3K9 deacetylation of nucleosomes from HEK293T cells, Western blot; type: biochemical; conditions: 100 μM, 30° C., 60 minutes
Experimental: . Nucleosomes extracted from HEK293T cells were incubated with 100 μM of selected compounds or Vehicle at 30° C. for 60 minutes. Acetylated H3K9 and total H3 were detected by Western blot. The level of acetylated H3K9 was quantified by Image Lab software. FIGS. 5B and 5C show the cell viability which was assessed by MTT assay. R28 cells were treated with 30 μM or 100 μM compounds for 24 hours. Data were presented as mean±SEM. The experiment was repeated at least three times. ***p<0.001; ****p<0.0001.
Next, effects of selected compounds were explored for Sirt6-dependent deacetylation of complete nucleosomes extracted from human embryonic kidney (HEK) 293T cells, as nucleosomes represent more physiologically relevant substrates. […]. Briefly, HEK 293T cells in 100 mm dish were lysed with lysis buffer supplemented with PIC and PMSF for 30 min. After centrifugation for 10 min at 5000 rpm at 4° C., supernatant was removed and nuclei pellet was resuspended with digestion buffer supplemented with PIC and PMSF for 5 min at 37° C. Working enzymatic sharing cocktail was added to digest the chromatin, and EDTA was added after incubation to stop the digestion. Digested nucleosome was obtained in the supernatant after centrifugation for 10 min at 15000 rpm at 4° C. and the concentration was quantified by measuring the absorbance at […]. 20 μg nucleosome was incubated in solution (1× buffer, 0.5 μL recombinant Sirt6 and […] NAD, from SIRT6 ACTIVITY ASSAY KIT) for 60 min. To test the effects of the compounds on Sirt6 activity, corresponding compound or DMSO control was added before incubation. The reaction mixture was analyzed by Western blot.
Proteins were extracted from cells with PIERCE RIPA BUFFER (89901, ThermoFisher Scientific), and protein concentration was determined using PIERCE BCA PROTEIN ASSAY KIT (23225, ThermoFisher Scientific). Equal amounts of protein were loaded and separated by SDS-PAGE gel. Next, separated proteins were transferred onto Nitrocellulose Blotting Membranes (A29457237, GE Healthcare Life science), and then the membranes were blocked by 5% non-fat dry milk. After incubation with corresponding primary antibodies against H3K9ac, H3 and Sirt6 at a 1:1000 dilution, or α-tubulin at a 1:5000 dilution, goat anti-mouse or goat anti-rabbit secondary antibodies at a 1:5000 dilution were applied. Finally, membranes were incubated with enhanced chemiluminescent and protein bands were detected by CHEMIDOC imaging system (Bio-Rad). Image-Lab software was used to analyze the intensities of the protein bands.

BV2 cells = assay: LPS-induced inflammatory gene mRNA expression in BV2 cells, q-PCR; type: cell-based, murine; conditions: for LPS-induced expression of IL-1β, IL-6, MCP-1, and TNFα / LPS-induced IL-1β, IL-6, and MCP-1 response / LPS-induced iNOS and CXCL10 expression / VCAM-1 induction / ICAM-1 induction: BV2 cells, 100 ng/mL LPS 6 hours, mRNA; for LPS-induced expression of IL-1β, IL-6, MCP-1, and TNFα: 30 μM pretreatment 30 minutes; for LPS-induced IL-1β, IL-6, and MCP-1 response / LPS-induced iNOS and CXCL10 expression / VCAM-1 induction / ICAM-1 induction: 30 μM; for LPS-induced proinflammatory cytokine/chemokine production: summary statement

T1 sequence (Q8N6T7 whole entry): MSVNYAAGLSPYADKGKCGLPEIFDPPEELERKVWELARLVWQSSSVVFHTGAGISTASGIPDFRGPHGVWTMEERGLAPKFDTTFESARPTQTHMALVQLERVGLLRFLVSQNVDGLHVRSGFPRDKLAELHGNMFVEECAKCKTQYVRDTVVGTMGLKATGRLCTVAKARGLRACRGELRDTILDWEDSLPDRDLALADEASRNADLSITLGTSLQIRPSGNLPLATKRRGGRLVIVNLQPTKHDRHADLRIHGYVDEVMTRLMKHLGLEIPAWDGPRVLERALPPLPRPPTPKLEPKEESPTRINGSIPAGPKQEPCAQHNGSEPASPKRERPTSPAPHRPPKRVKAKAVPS

O=C(O)c1ccc2c(c1)C(=O)N(c1ccc(N(C(=O)c3c(Cl)cc(Cl)cc3Cl)C(=O)c3c(Cl)cc(Cl)cc3Cl)c(Cl)c1)C2=O [CL5D]
Sirt6 activation at 3 μM (Sirt6 [1]; concentration of 3 μM): 4 fold

OC1CN(CCN2CCN(c3ncccc3C3Nc4ccccc4-n4cccc43)CC2)C1 (stereo not drawn) [Compound 46, 1-(2-(4-(3-(4,5-Dihydropyrrolo[1,2-a]quinoxalin-4-yl)pyridin-2-yl)piperazin-1-yl)ethyl)azetidin-3-ol]
Activation Fold 30 μM (Sirt6 [2]): 3.30 ± 0.11 fold
Activation Fold 100 μM (Sirt6 [2]): 6.30 ± 0.25 fold
potency in inhibiting SARS-CoV-2 infection (in words) (SARS-CoV-2): micromolar potency
cytotoxicity at the highest tested concentration (A549-hACE2 cells): none of these compounds exhibited significant cytotoxicity
toxicity on retinal precursor cells (R28) [3]: no obvious toxicity
acetylation of H3K9 in the nucleosome test (Sirt6 [4]): significantly decreased the acetylation of H3K9
LPS-induced expression of IL-1β, IL-6, MCP-1, and TNFα (BV2 cells): strongly inhibited
LPS-induced IL-1β, IL-6, and MCP-1 response (BV2 cells): almost reversed
LPS-induced iNOS and CXCL10 expression (BV2 cells): significantly repressed
VCAM-1 induction (BV2 cells): obviously inhibit
LPS-induced proinflammatory cytokine/chemokine production (BV2 cells): strongly repressed

c1ccc2c(c1)NC(c1cccnc1N1CCN(CCN3CCCC3)CC1)c1cccn1-2 (stereo not drawn) [Compound 47, 4-(2-(4-(2-(Pyrrolidin-1-yl)ethyl)piperazin-1-yl)pyridin-3-yl)-4,5-dihydropyrrolo[1,2-a]quinoxaline]
Activation Fold 30 μM (Sirt6 [2]): 4.80 ± 0.19 fold
Activation Fold 100 μM (Sirt6 [2]): 5.38 ± 0.29 fold
toxicity on retinal precursor cells (R28) [3]: no obvious toxicity
acetylation of H3K9 in the nucleosome test (Sirt6 [4]): no effect
LPS-induced expression of IL-1β, IL-6, MCP-1, and TNFα (BV2 cells): strongly inhibited
ICAM-1 induction (BV2 cells): slight inhibition
LPS-induced IL-1β, IL-6, and MCP-1 response (BV2 cells): almost reversed
LPS-induced iNOS and CXCL10 expression (BV2 cells): significantly repressed
VCAM-1 induction (BV2 cells): obviously inhibit
LPS-induced proinflammatory cytokine/chemokine production (BV2 cells): strongly repressed

c1ccc2c(c1)NC(c1cccnc1N1CCN(CCn3ccnc3)CC1)c1cccn1-2 (stereo not drawn) [Compound 50, 4-(2-(4-(2-(1H-Imidazol-1-yl)ethyl)piperazin-1-yl)pyridin-3-yl)-4,5-dihydropyrrolo[1,2-a]quinoxaline]
Activation Fold 30 μM (Sirt6 [2]): 3.34 ± 0.19 fold
Activation Fold 100 μM (Sirt6 [2]): 6.29 ± 0.02 fold
toxicity on retinal precursor cells (R28) [3]: no obvious toxicity
acetylation of H3K9 in the nucleosome test (Sirt6 [4]): significantly decreased the acetylation of H3K9
LPS-induced expression of IL-1β, IL-6, MCP-1, and TNFα (BV2 cells): strongly inhibited
ICAM-1 induction (BV2 cells): slight inhibition
LPS-induced IL-1β, IL-6, and MCP-1 response (BV2 cells): almost reversed
LPS-induced iNOS and CXCL10 expression (BV2 cells): significantly repressed
LPS-induced proinflammatory cytokine/chemokine production (BV2 cells): strongly repressed

CN(C)CCN1CCN(c2ccccc2C2Nc3ccccc3-n3cccc32)CC1 (stereo not drawn) [Compound 63, 2-(4-(2-(4,5-Dihydropyrrolo[1,2-a]quinoxalin-4-yl)phenyl)piperazin-1-yl)-N,N-dimethylethan-1-amine]
Activation Fold 30 μM (Sirt6 [2]): 2.62 fold and 2.62 ± 0.34 fold
Activation Fold 100 μM (Sirt6 [2]): 5.43 fold and 5.43 ± 0.21 fold

CN(C)CCN1CCN(c2ncccc2C2Oc3ccccc3-n3cccc32)CC1 (stereo not drawn) [Compound 66, 2-(4-(3-(4H-Benzo[b]pyrrolo[1,2-d][1,4]oxazin-4-yl)pyridin-2-yl)piperazin-1-yl)-N,N-dimethylethan-1-amine]
Activation Fold 30 μM (Sirt6 [2]): 2.67 fold and 2.67 ± 0.01 fold
Activation Fold 100 μM (Sirt6 [2]): 4.23 fold and 4.23 ± 0.22 fold

Cc1ccc2c(c1)-n1cccc1C(c1cccnc1N1CCN(CCN(C)C)CC1)O2 (stereo not drawn) [Compound 68, N,N-Dimethyl-2-(4-(3-(8-methyl-4H-benzo[b]pyrrolo[1,2-d][1,4]oxazin-4-yl)pyridin-2-yl)piperazin-1-yl)ethan-1-amine]
Activation Fold 30 μM (Sirt6 [2]): 2.99 ± 0.05 fold
Activation Fold 100 μM (Sirt6 [2]): 4.56 ± 0.04 fold

COc1ccc2c(c1)-n1cccc1C(c1cccnc1N1CCN(CCN(C)C)CC1)O2 (stereo not drawn) [Compound 69, 2-(4-(3-(8-Methoxy-4H-benzo[b]pyrrolo[1,2-d][1,4]oxazin-4-yl)pyridin-2-yl)piperazin-1-yl)-N,N-dimethylethan-1-amine]
Activation Fold 30 μM (Sirt6 [2]): 4.51 ± 0.06 fold
Activation Fold 100 μM (Sirt6 [2]): 5.65 ± 0.22 fold

CN(C)CCN1CCN(c2ncccc2C2Oc3ccc(F)cc3-n3cccc32)CC1 (stereo not drawn) [Compound 70, 2-(4-(3-(8-Fluoro-4H-benzo[b]pyrrolo[1,2-d][1,4]oxazin-4-yl)pyridin-2-yl)piperazin-1-yl)-N,N-dimethylethan-1-amine]
Activation Fold 30 μM (Sirt6 [2]): 1.84 ± 0.04 fold
Activation Fold 100 μM (Sirt6 [2]): 2.53 fold and 2.53 ± 0.05 fold

COC(=O)c1ccc2c(c1)OC(c1cccnc1N1CCN(CCN(C)C)CC1)c1cccn1-2 (stereo not drawn) [Compound 71, Methyl 4-(2-(4-(2-(dimethylamino)ethyl)piperazin-1-yl)pyridin-3-yl)-4H-benzo[b]pyrrolo[1,2-d][1,4]oxazine-7-carboxylate]
Activation Fold 30 μM (Sirt6 [2]): 4.16 ± 0.18 fold
Activation Fold 100 μM (Sirt6 [2]): 4.82 ± 0.14 fold

CN(C)CCN1CCN(c2ncccc2C2Oc3cc(CO)ccc3-n3cccc32)CC1 (stereo not drawn) [Compound 72, (4-(2-(4-(2-(Dimethylamino)ethyl)piperazin-1-yl)pyridin-3-yl)-4H-benzo[b]pyrrolo[1,2-d][1,4]oxazin-7-yl)methanol]
Activation Fold 30 μM (Sirt6 [2]): 1.59 ± 0.03 fold
Activation Fold 100 μM (Sirt6 [2]): 2.69 fold and 2.69 ± 0.03 fold

CN(C)CCN1CCN(c2ncccc2C2Oc3ccccc3-n3c2ccc3C(F)(F)F)CC1 (stereo not drawn) [Compound 76, N,N-Dimethyl-2-(4-(3-(1-(trifluoromethyl)-4H-benzo[b]pyrrolo[1,2-d][1,4]oxazin-4-yl)pyridin-2-yl)piperazin-1-yl)ethan-1-amine]
Activation Fold 30 μM (Sirt6 [2]): 2.69 ± 0.02 fold
Activation Fold 100 μM (Sirt6 [2]): 4.20 ± 0.06 fold

CCCCCCCC/C=C\CCCCCCCC(=O)NCCO [Oleoylethanolamide]
maximum activation (Emax) of Sirt6 deacetylation (Sirt6 [1]): 2.1 fold
